Assay results: patent US20230346827A1 (priority 2020, published 2023)

Assays:
[1] = test system: ALS patients; assay: Blood myoglobin, creatine kinase and HGF in ALS patients, dextran sulfate 1 mg/kg s.c. weekly for five weeks (Example 15); assay type: in vivo, human; parameters: circulating HGF, peak: unit not given here
Protocol: A clinical trial in the form of a Phase IIa, single-center, open label, single-arm study where the safety, tolerability and possible efficacy of subcutaneously administered dextran sulfate was evaluated in patients with ALS of intermediate progression rate. The clinical trial was conducted at the Sahlgrenska University Hospital, Gothenburg, Sweden and was overseen and approved by the Ethics Committee of the University of Gothenburg and by the Swedish Medical Products Agency.
Dextran sulfate (Tikomed AB, Viken, Sweden, WO 2016/076780) was administered at 1 mg/kg by […] subcutaneous injection once a week for five weeks to 13 human patients suffering from ALS.
Blood samples were drawn at defined study intervals by a venous catheter into vacutainer tubes. Laboratory analyses of blood plasma were performed immediately after collection by the Clinical Chemistry Laboratory at the Sahlgrenska University Hospital.

[2] = test system: ALS patients; assay: Serum lactate in ALS patients, dextran sulfate 2 mg/kg s.c. weekly for ten weeks (Example 14); assay type: in vivo, human; parameters: serum lactate levels: unit not given here
Protocol: Dextran sulfate (ILB®, Tikomed AB, Viken, Sweden, WO 2016/076780) was administered at 2 mg/kg by […] subcutaneous injection once a week for ten weeks to 8 human patients suffering from ALS.
Peripheral venous blood samples were collected from patients before (week 0) and after dextran sulfate administration (week 5 and week 10) after at least 15 minutes of complete rest, using the standard tourniquet procedure, from the antecubital vein into a single VACUETTE® polypropylene tube containing serum separator and clot activator (Greiner-Bio One GmbH, Kremsmunster, Austria). After 30 mins at room temperature (20-25° C.), blood withdrawals were centrifuged at 1,890 × g for 10 min to get serum aliquots.
A serum aliquot of 500 µl was supplemented with 1 ml of HPLC-grade acetonitrile, vortexed for 60 secs, centrifuged at the maximum speed in a top-bench centrifuge to precipitate proteins. Supernatants were washed with large volumes of HPLC-grade chloroform to remove organic solvent, centrifuged and the upper aqueous phases were transferred to different tubes, clearly labeled to identify the sample and stored at -80° C. until analyzed to determine different water-soluble compounds.

[3] = test system: HDFn + (IL-1β, TNFα, IFNy, EGF, bFGF and PDGF-BB); assay: BioMAP HDF3CGF system; assay type: cell-based, human; settings: annotated relative to vehicle controls
From the text: (§1) Cell types and stimuli used in each system are as follows: 3C system [HUVEC + (IL-1β, TNFα and IFNy)], 4H system [HUVEC + (IL-4 and histamine)], LPS system [PBMC and HUVEC + LPS (TLR4 ligand)], SAg system [PBMC and HUVEC + TCR ligands], BT system [CD19+ B cells and PBMC + (α-IgM and TCR ligands)], BF4T system [bronchial epithelial cells and HDFn + (TNFα and IL-4)], BE3C system [bronchial epithelial cells + (IL-1β, TNFα and IFNy)], CASM3C system [coronary artery smooth muscle cells + (IL-1 β, TNFα and IFNy)], HDF3CGF system [HDFn + (IL-1β, TNFα, IFNy, EGF, bFGF and PDGF-BB)], KF3CT system [keratinocytes and HDFn + (IL-1β, TNFα, IFNy and TGFβ)], MyoF system [differentiated lung myofibroblasts + (TNFα and TGFβ)] and Mphg system [HUVEC and M1 macrophages + Zymosan (TLR2 ligand)].
(§2) Systems are derived from either single cell types or co-culture systems. Adherent cell types are cultured in 96 or 384-well plates until confluence, followed by the addition of PBMC (SAg and LPS systems). […] Soluble factors from supernatants are quantified using either HTRF® detection, bead-based multiplex immunoassay or capture ELISA. Overt adverse effects of test agents on cell proliferation and viability (cytotoxicity) are detected by sulforhodamine B (SRB) staining, for adherent cells, and alamarBlue® reduction for cells in suspension. […]

[4] = test system: HUVEC and M1 macrophages + Zymosan (TLR2 ligand); assay: BioMAP Mphg system; assay type: cell-based, human; settings: annotated relative to vehicle controls
From the text: as §1, §2

[5] = biological target: oligomeric amyloid-β / PrP^c interaction (Homo sapiens, UniProt P04156); assay type: binding
[6] = test system: HUVEC + (IL-4 and histamine); assay: BioMAP 4H system; assay type: cell-based, human; settings: annotated relative to vehicle controls
From the text: as §1, §2

[7] = test system: PBMC and HUVEC + TCR ligands; assay: BioMAP SAg system; assay type: cell-based, human; settings: annotated relative to vehicle controls
From the text: as §1, §2

[8] = test system: CD19+ B cells and PBMC + (α-IgM and TCR ligands); assay: BioMAP BT system; assay type: cell-based, human; settings: annotated relative to vehicle controls
From the text: as §1, §2

sodium salt of dextran sulfate [LMW-DS]
reduction in creatine kinase levels ([1]; after 4 weeks of treatment): 13.3%
serum creatine kinase levels ([1]; after 4 weeks of treatment): 6.2 ± 5.08 µkat/L
serum myoglobin levels ([1]; after 4 weeks of treatment): 103.69 ± 72.16 µg/L
reduction in myoglobin levels ([1]; after 4 weeks of treatment vs Day 1): 30%
circulating HGF, peak ([1]; peak at 2.5 hours after injection): 37863 ± 14235
increase of serum lactate levels vs Week 0 ([2]; after 5 weeks of treatment): 29.8%
serum lactate levels ([2]; after 5 weeks of treatment): 2.31±1.02
increase of serum lactate levels vs Week 0 ([2]; after 10 weeks of treatment): 70%
serum lactate levels ([2]; after 10 weeks of treatment): 3.02±1.59
Decreased biomarker activity [3]: VCAM-1, IP-10, ITAC, MIG, M-CSF
Increased biomarker activity [3]: EGFR, MMP-1, PAI-1
Increased biomarker activity [4]: IL-8, CD69
Competable binding (%) [5]: 85±4%
Hill coefficient [5]: 1.00±0.21
IC50 [5]: 0.42 ± 0.16 µg/mL
Increased biomarker activity [6]: uPAR
Increased biomarker activity [7]: IL-8
Decreased biomarker activity [8]: sIgG, sIL-17F
Increased biomarker activity [8]: sIL-17A
